Assay results from PubChem BioAssay (NCI).
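Exposure lasted 48 hours, with cells grown in 96-well plates and compounds tested at five concentrations. TGI: concentration producing complete growth inhibition.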

Columns and labels:
Assay in all cases: NCI tumour cell line growth inhibition, 48 h
BT-549 breast = system: BT-549 breast
MCF7 breast = system: MCF7 breast
CCRF-CEM leukemia = system: CCRF-CEM leukemia
SK-OV-3 ovarian = system: SK-OV-3 ovarian
EKVX NSCLC = system: EKVX NSCLC
MDA-MB-231 breast = system: MDA-MB-231 breast
OVCAR-8 ovarian = system: OVCAR-8 ovarian
MDA-N = system: MDA-N
SNB-19 CNS = system: SNB-19 CNS
HOP-92 NSCLC = system: HOP-92 NSCLC
NCI-H23 lung = system: NCI-H23 lung
OVCAR-4 ovarian = system: OVCAR-4 ovarian
786-0 renal = system: 786-0 renal
NCI-H522 lung = system: NCI-H522 lung
NCI/ADR-RES ovarian = system: NCI/ADR-RES ovarian
CAKI-1 renal = system: CAKI-1 renal
MOLT-4 leukemia = system: MOLT-4 leukemia
MDA-MB-435 = system: MDA-MB-435
IGROV1 ovarian = system: IGROV1 ovarian
HOP-62 NSCLC = system: HOP-62 NSCLC
HCT-116 colon = system: HCT-116 colon
ACHN renal = system: ACHN renal
SK-MEL-28 melanoma = system: SK-MEL-28 melanoma
UO-31 renal = system: UO-31 renal
T-47D breast = system: T-47D breast
HT29 colon = system: HT29 colon
UACC-62 melanoma = system: UACC-62 melanoma
K-562 leukemia = system: K-562 leukemia
SW-620 colon = system: SW-620 colon
SK-MEL-5 melanoma = system: SK-MEL-5 melanoma
KM12 colon = system: KM12 colon
TK-10 renal = system: TK-10 renal
SR leukemia = system: SR leukemia
SF-268 CNS = system: SF-268 CNS
M14 melanoma = system: M14 melanoma
RXF 393 renal = system: RXF 393 renal
U251 CNS = system: U251 CNS
SNB-75 CNS = system: SNB-75 CNS
DU-145 prostate = system: DU-145 prostate
OVCAR-5 ovarian = system: OVCAR-5 ovarian
OVCAR-3 ovarian = system: OVCAR-3 ovarian
A549 NSCLC = system: A549 NSCLC
SN12C renal = system: SN12C renal
HCT-15 colon = system: HCT-15 colon
UACC-257 melanoma = system: UACC-257 melanoma
MALME-3M melanoma = system: MALME-3M melanoma
NCI-H226 lung = system: NCI-H226 lung
SK-MEL-2 melanoma = system: SK-MEL-2 melanoma
PC-3 prostate = system: PC-3 prostate
SF-539 CNS = system: SF-539 CNS
COLO 205 colon = system: COLO 205 colon
HCC-2998 colon = system: HCC-2998 colon
HS 578T breast = system: HS 578T breast
NCI-H460 lung = system: NCI-H460 lung
A498 renal = system: A498 renal

Structure (SMILES): COc1cc(Cc2cnc(N)nc2N)cc(OC)c1OCCCNc1ccc([N+](=O)[O-])cc1
- TGI (BT-549 breast): 31.1 µM
- TGI (MCF7 breast): 26.5 µM
- TGI (CCRF-CEM leukemia): 35.2 µM
- TGI (SK-OV-3 ovarian): 66.6 µM
- TGI (EKVX NSCLC): 32 µM
- TGI (MDA-MB-231 breast): 27.5 µM
- TGI (OVCAR-8 ovarian): 30.1 µM
- TGI (MDA-N): 32.9 µM
- TGI (SNB-19 CNS): 27 µM
- TGI (HOP-92 NSCLC): 36.4 µM
- TGI (NCI-H23 lung): 31.8 µM
- TGI (OVCAR-4 ovarian): 33.6 µM
- TGI (786-0 renal): 28 µM
- TGI (NCI-H522 lung): 26.3 µM
- TGI (NCI/ADR-RES ovarian): 60 µM
- TGI (CAKI-1 renal): > 100 µM
- TGI (MOLT-4 leukemia): 8.66 µM
- TGI (MDA-MB-435): 29.8 µM
- TGI (IGROV1 ovarian): 28.3 µM
- TGI (HOP-62 NSCLC): 27.4 µM
- TGI (HCT-116 colon): 30.4 µM
- TGI (ACHN renal): 37.8 µM
- TGI (SK-MEL-28 melanoma): 27.1 µM
- TGI (UO-31 renal): 26.5 µM
- TGI (T-47D breast): 25.3 µM
- TGI (HT29 colon): 14.8 µM
- TGI (UACC-62 melanoma): 26.7 µM
- TGI (K-562 leukemia): > 100 µM
- TGI (SW-620 colon): 34.2 µM
- TGI (SK-MEL-5 melanoma): 18.9 µM
- TGI (KM12 colon): 32.2 µM
- TGI (TK-10 renal): 32.7 µM
- TGI (SR leukemia): 24.3 µM
- TGI (SF-268 CNS): 74 µM
- TGI (M14 melanoma): 19.2 µM
- TGI (RXF 393 renal): 25.2 µM
- TGI (U251 CNS): 29.2 µM
- TGI (SNB-75 CNS): 32.7 µM
- TGI (DU-145 prostate): 30.2 µM
- TGI (OVCAR-5 ovarian): 35.5 µM
- TGI (OVCAR-3 ovarian): 28.1 µM
- TGI (A549 NSCLC): 35.2 µM
- TGI (SN12C renal): 41.4 µM
- TGI (HCT-15 colon): 37.8 µM
- TGI (UACC-257 melanoma): 25.9 µM
- TGI (MALME-3M melanoma): 25.8 µM
- TGI (NCI-H226 lung): 28.4 µM
- TGI (SK-MEL-2 melanoma): 29.5 µM
- TGI (PC-3 prostate): 22.3 µM
- TGI (SF-539 CNS): 26.1 µM
- TGI (COLO 205 colon): 27.4 µM
- TGI (HCC-2998 colon): 31.4 µM
- TGI (HS 578T breast): > 100 µM
- TGI (NCI-H460 lung): 26 µM
- TGI (A498 renal): 39.3 µM
